The values below come from patent publication US20260034107A1, “SUBSTITUTED FUSED IMIDAZOLE DERIVATIVES AND METHODS OF TREATING SICKLE CELL DISEASE AND RELATED COMPLICATIONS” (vTv Therapeutics LLC, priority 2019, published 2026).

Series [1] deals with HbF. As to the kind of experiment: Western blot analysis of HbF induction in KU812 cells. Type of series: cell-based, human. The following applies: for HbF induction by Western blot: tested concentrations 0.5-20 μM; for increased HbF (Western blot): at concentrations between 0.5 to 5 PM. How it is done:
(§1) About 20-50 ug of protein is separated by SDS-polyacrylamide gel electrophoresis, and transferred to nitrocellulose membranes. Membranes are blocked in 5% dry milk containing TBS-T for 30 minutes followed by one hour and incubated with HbF or actin antibodies. After several washes, membranes are incubated with 1:10000 diluted HRP-conjugated secondary antibody (Thermo Scientific), developed with ECL Prime reagent (GE Healthcare Biosciences). Images may be captured on a Bio-Rad Chemi-Doc MP Imaging System and protein bands quantified by densitometry.
(§2) KU812, a human leukemic cell line that expresses the fetal gamma-globin and adult beta-globin genes, was used as a system for screening. […] (See Zein S, Lou R F, Sivanand S, Ramakrishnan V, Mackie A, Li W, Pace BS. KU812 Cell Line: model for identifying fetal hemoglobin inducing drugs. Exp Biol Med (Maywood) 235:1385-94, 2010.) KU812 cells were grown in Iscove's Modified Dulbecco Media (IMDM) and 10% fetal bovine serum until in log phase growth.
Western blot analysis was also conducted to determine level of induction of HbF in KU812 cells by Compounds 73, 134, 473, and 236. Hydroxyurea and hemin were used as positive controls, and ß-actin was used as a protein loading control.

Series [2] deals with KU812 cells. Put plainly: KU812 cell counts and viability by 0.4% Trypan blue exclusion. It is filed as cell-based, human. Particulars: 48 hours, 0.5, 2.5, 5.0 and 20 μM, widest range of drug concentrations. On the procedure: as §2
KU812 cells in log growth phase were treated with compounds 73, 134, 473 and 236 (See Table A) at a doses of 0.5, 2.5, 5.0 and 20 μM for 48 hours. At harvest, cell counts and viability were measured by 0.4% Trypan blue exclusion.

For series [3], the system named is HbF. Put plainly: Flow cytometry of KU812 cells for HbF positive cells (F-cells) and MFI. Type of series: cell-based, human. Particulars: flow cytometry, 0.5, 2.5, 5, 10, and 20 μM. On the procedure:
(§3) About 5×10^5 cells are harvested after treatment with compound, washed twice with ice cold phosphate buffered saline and resuspended in 4% paraformaldehyde for 40 minutes at 37° C. Fixed cells are permeabilized with ice-cold acetone/methanol (4:1) and washed with phosphate buffered saline followed by incubation with FITC-conjugated anti-HbF antibody (1:1000, Abcam) for 20 minutes. The labeled cells may be analyzed using a Becton Dickerson LSR-II flow cytometer (BD Bioscience, San Jose, CA, USA) and FlowJo v0.9 software.
as §2
Flow cytometry was conducted for KU812 cells following treatment with Compounds 473 and 236 at various concentrations (0.5, 2.5, 5, 10, and 20 μM). […] Compounds 73 and 134 were not analyzed by flow cytometry.
For orientation: Flow cytometry measures light scatter and fluorescence of single cells or particles in a stream.

For series [4], the system named is γ-globin. As to the kind of experiment: γ-globin / HbF expression in sickle erythroid progenitor cells. It is filed as cell-based. The following applies: 48 hours. On the procedure: as §1
About 5×10^5 cells are harvested after treatment with compound, washed twice with ice cold phosphate buffered saline and resuspended in 4% paraformaldehyde for 40 minutes at 37° C. […] The labeled cells may be analyzed using a Becton Dickerson LSR-II flow cytometer (BD Bioscience, San Jose, CA, USA) and FlowJo v0.9 software.
To test compounds under conditions more closely modeling physiological conditions for one with a SCD, sickle erythroid progenitor cells were cultured for 10 days and then treated with Compound 473 for 48 hours at concentrations of 0.5 μM and 2.5 μM. Treated cells were analyzed by western blot for levels of expression of HbF, HbS, and ß-actin relative to cells treated with DMSO, hemin, or HU. […]

In series [5] the test system is HbS. As to the kind of experiment: Western blot of HbS protein in sickle erythroid progenitor cells. It is filed as cell-based. Particulars: 0.5 μM and 2.5 μM, 48 hours. How it is done:
as §1
(§4) To test compounds under conditions more closely modeling physiological conditions for one with a SCD, sickle erythroid progenitor cells were cultured for 10 days and then treated with Compound 473 for 48 hours at concentrations of 0.5 μM and 2.5 μM. Treated cells were analyzed by western blot for levels of expression of HbF, HbS, and ß-actin relative to cells treated with DMSO, hemin, or HU. The same treated cells were also analyzed by flow cytometry for y-globin gene expression relative to cells treated with DMSO, hemin, or HU.

Series [6] has as its system HbF. Put plainly: Flow cytometry of F-cells in sickle erythroid progenitor cells. Type of series: cell-based. Particulars: 0.5 μM and 2.5 μM, 48 hours. On the procedure:
as §3, §4

Series [7] deals with sickle erythroid progenitor cells. As to the kind of experiment: Anti-sickling activity in sickle erythroid progenitor cells under hypoxia. It is filed as cell-based. Particulars: 0.5 μM and 2.5 μM, 48 hours, hypoxia (1% O2 and 5% CO2). How it is done:
As described above, sickle erythroid progenitor cells were cultured for 10 days and then treated with Compound 473 for 48 hours at concentrations of 0.5 μM and 2.5 μM or with hemin (about 50 μM) or with HU (about 100 μM). Treated cells were then subjected to hypoxia conditions (1% O2 and 5% CO2).

With `COCCNC(=O)c1cnc2c(c1)nc(Nc1nc3ccc(OC(F)(F)F)cc3s1)n2C` [Compound 73, 3-Methyl-2-(6-trifluoromethoxy-benzothiazol-2-ylamino)-3H-imidazo[4,5-b]pyridine-6-carboxylic acid (2-methoxy-ethyl)-amide], the “HbF induction by Western blot” value in series [1] was “showed HbF induction”.
For `CN(C)C(=O)CNC(=O)c1ccc2c(c1)nc(Nc1nc3ccc(C(F)(F)F)cc3s1)n2C` [Compound 134, 1-Methyl-2-(6-trifluoromethyl-benzothiazol-2-ylamino)-1H-benzimidazole-5-carboxylic acid dimethylcarbamoylmethyl-amide], in series [1], the “increased HbF (Western blot)” value was “increased HbF” and the “HbF induction by Western blot” value was “showed HbF induction”. For the same molecule, the “effects on cell growth rates” value in series [2] was “minimal effects”.
Regarding `Cn1c(Nc2nc3ccc(C(F)(F)F)cc3s2)nc2cc(C(=O)NCCOCCO)ccc21` [Compound 236, 1-Methyl-2-(6-trifluoromethyl-benzothiazol-2-ylamino)-1H-benzoimidazole-5-carboxylic acid [2-(2-hydroxy-ethoxy)-ethyl]-amide], in series [3], the “mean fluorescence intensity (MFI)” value is “some increase in MFI” and the “number of HbF positive cells (F-cells)” value was “did not significantly increase F-cells”. In series [1], the “HbF induction by Western blot” value is listed as “did not show significant induction of HbF”.
As for `Cn1c(Nc2nc3ccc(C(F)(F)F)cc3s2)nc2cc(C(=O)NCCOCCO)cnc21` [Compound 473, N-[2-(2-Hydroxyethoxy)ethyl]-3-methyl-2-[[6-(trifluoromethyl)-1,3-benzothiazol-2-yl]amino]imidazo[4,5-b]pyridine-6-carboxamide], the “γ-globin gene expression induction” value in series [4] (0.5 μM) was found to be 1.6 fold. Besides, in series [4] (2.5 μM), the “γ-globin gene expression induction” value was 1.9 fold. For the same molecule, the HbS protein levels result in series [5] is “without affecting HbS protein levels”. Also, the “F-cell levels by flow cytometry” value in series [6] is “Increased F-cell levels”. Also, in series [3], the “mean fluorescence intensity (MFI)” value is reported as “increased mean fluorescence intensity” and the “number of HbF positive cells (F-cells)” value was “increase in the number of HbF positive cells”. The “percent of sickled cells compared to DMSO control” value in series [7] was “significantly decreased the percent of sickled cells”. For the same molecule, in series [1], the “increased HbF (Western blot)” value was “increased HbF” and the “HbF induction by Western blot” value was “showed HbF induction”. For the same molecule, the “effects on cell growth rates” value in series [2] is reported as “minimal effects”.
